Results reported in PubChem BioAssay AID623929 (Vanderbilt Specialized Chemistry Center, 2012).
pIC50: −log10 of the molar value.

What follows are molecules tested against Metabotropic glutamate receptor 2 (Rattus norvegicus) (UniProt P31421) (assay: PubChem AID 623929). Details: HEK293 GIRK rat mGlu2, thallium flux fluorescence; call rule not given here.
Metabotropic glutamate receptor 2 (Rattus norvegicus), sequence (P31421 whole entry, looked up): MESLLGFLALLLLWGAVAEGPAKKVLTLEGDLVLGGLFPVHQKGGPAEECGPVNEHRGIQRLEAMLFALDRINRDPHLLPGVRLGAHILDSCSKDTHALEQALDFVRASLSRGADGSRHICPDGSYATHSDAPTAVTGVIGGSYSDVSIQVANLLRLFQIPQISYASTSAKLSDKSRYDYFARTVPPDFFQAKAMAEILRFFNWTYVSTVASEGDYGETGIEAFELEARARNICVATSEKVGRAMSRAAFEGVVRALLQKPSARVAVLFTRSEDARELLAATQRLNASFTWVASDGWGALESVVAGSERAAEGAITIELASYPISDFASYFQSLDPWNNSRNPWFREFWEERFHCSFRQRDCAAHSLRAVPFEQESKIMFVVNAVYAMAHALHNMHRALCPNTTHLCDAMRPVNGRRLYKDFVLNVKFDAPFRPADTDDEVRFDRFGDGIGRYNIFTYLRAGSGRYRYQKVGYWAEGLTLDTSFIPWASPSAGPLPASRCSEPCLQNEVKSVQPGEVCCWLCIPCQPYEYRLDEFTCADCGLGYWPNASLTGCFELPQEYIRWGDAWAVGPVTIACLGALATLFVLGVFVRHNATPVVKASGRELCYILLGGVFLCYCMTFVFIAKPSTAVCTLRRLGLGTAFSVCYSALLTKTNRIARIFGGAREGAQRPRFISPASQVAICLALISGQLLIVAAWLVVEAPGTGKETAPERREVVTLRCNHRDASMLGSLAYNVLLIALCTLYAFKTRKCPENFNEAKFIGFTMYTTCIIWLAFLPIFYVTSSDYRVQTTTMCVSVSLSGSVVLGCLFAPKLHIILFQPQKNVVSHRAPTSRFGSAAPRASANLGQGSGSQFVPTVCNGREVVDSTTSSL

pIC50, active:
COc1ccc(C#Cc2ccc(C(=O)N3CCCC(CO)C3)cc2)cc1 (stereo not drawn) 5.00
COc1ccc(C#Cc2ccc(C(=O)N3CCC[C@@H](CO)C3)cc2)cc1 5.00
COc1ccc(C#Cc2ccc(C(=O)N3CCC[C@H](CO)C3)cc2)cc1 5.00
